Results reported in ChEMBL document CHEMBL1152853, “Synthesis and biological evaluation of novel symmetry bis-enediynes” (2009).
Calls of active or inactive are those of the source. The rule behind the calls is not given here.

How the values were obtained:
K562 [1] = assay: Cell cycle arrest in human K562 cells assessed as accumulation in G0/G1 phase at 20 uM after 24 hrs by flow cytometry analysis; format: functional
K562 [2] = assay: Cell cycle arrest in human K562 cells assessed as accumulation in S phase at 20 uM after 24 hrs by flow cytometry analysis; format: functional
K562 [3] = assay: Cell cycle arrest in human K562 cells assessed as accumulation in G2/M phase at 20 uM after 24 hrs by flow cytometry analysis; format: functional
K562 [4] = assay: Cell cycle arrest in human K562 cells assessed as accumulation in Sub-G1 phase at 20 uM after 24 hrs by flow cytometry analysis; format: functional
K562 [5] = assay: Cell cycle arrest in human K562 cells assessed as accumulation in G0/G1 phase at 50 uM after 24 hrs by flow cytometry analysis; format: functional
K562 [6] = assay: Cell cycle arrest in human K562 cells assessed as accumulation in S phase at 50 uM after 24 hrs by flow cytometry analysis; format: functional
K562 [7] = assay: Cell cycle arrest in human K562 cells assessed as accumulation in G2/M phase at 50 uM after 24 hrs by flow cytometry analysis; format: functional
K562 [8] = assay: Cell cycle arrest in human K562 cells assessed as accumulation in Sub-G1 phase at 50 uM after 24 hrs by flow cytometry analysis; format: functional
K562 [9] = assay: Inhibition of G2/M phase related Cyclin A protein expression in human K562 cells at 20 uM by Western blotting analysis; format: functional, cell-based
K562 [10] = assay: Inhibition of G2/M phase related Cyclin B protein expression in human K562 cells at 20 uM by Western blotting analysis; format: functional, cell-based
CCRF-CEM = assay: Cytotoxicity against human CCRF-CEM cells; format: functional
HL-60 = assay: Cytotoxicity against human HL60 cells; format: functional
K562 [11] = assay: Cytotoxicity against human K562 cells; format: functional
MOLT-4 = assay: Cytotoxicity against human MOLT4 cells; format: functional
[12] = Cytotoxicity against human […] cells; format: functional
A549 = assay: Cytotoxicity against human A549 cells; format: functional
EKVX = assay: Cytotoxicity against human EKVX cells; format: functional
HOP-62 = assay: Cytotoxicity against human HOP62 cells; format: functional
NCI-H226 = assay: Cytotoxicity against human NCI-H226 cells; format: functional
NCI-H23 = assay: Cytotoxicity against human NCI-H23 cells; format: functional
NCI-H460 = assay: Cytotoxicity against human NCI-H460 cells; format: functional
NCI-H522 = assay: Cytotoxicity against human NCI-H522 cells; format: functional
COLO 205 = assay: Cytotoxicity against human COLO205 cells; format: functional
HCC 2998 = assay: Cytotoxicity against human HCC2998 cells; format: functional
HCT-116 = assay: Cytotoxicity against human HCT116 cells; format: functional
HCT-15 = assay: Cytotoxicity against human HCT15 cells; format: functional
HT-29 = assay: Cytotoxicity against human HT-29 cells; format: functional
KM12 = assay: Cytotoxicity against human KM12 cells; format: functional
SW-620 = assay: Cytotoxicity against human SW620 cells; format: functional
SF-268 = assay: Cytotoxicity against human SF268 cells; format: functional
SF-295 = assay: Cytotoxicity against human SF295 cells; format: functional
SF-539 = assay: Cytotoxicity against human SF539 cells; format: functional
SNB-19 = assay: Cytotoxicity against human SNB19 cells; format: functional
SNB-75 = assay: Cytotoxicity against human SNB75 cells; format: functional
U-251 = assay: Cytotoxicity against human U251 cells; format: functional
LOX IMVI = assay: Cytotoxicity against human LOXIMVI cells; format: functional
M14 = assay: Cytotoxicity against human M14 cells; format: functional
SK-MEL-28 = assay: Cytotoxicity against human SK-MEL-28 cells; format: functional
SK-MEL-5 = assay: Cytotoxicity against human SK-MEL-5 cells; format: functional
UACC-257 = assay: Cytotoxicity against human UACC257 cells; format: functional
UACC-62 = assay: Cytotoxicity against human UACC62 cells; format: functional
OVCAR-3 = assay: Cytotoxicity against human OVCAR-3 cells; format: functional
OVCAR-4 = assay: Cytotoxicity against human OVCAR4 cells; format: functional
OVCAR-5 = assay: Cytotoxicity against human OVCAR5 cells; format: functional
SK-OV-3 = assay: Cytotoxicity against human SKOV3 cells; format: functional
786-0 = assay: Cytotoxicity against human 786-0 cells; format: functional
ACHN = assay: Cytotoxicity against human ACHN cells; format: functional
CAKI-1 = assay: Cytotoxicity against human Caki1 cells; format: functional
RXF 393 = assay: Cytotoxicity against human […] cells; format: functional
SN12C = assay: Cytotoxicity against human SN12C cells; format: functional
UO-31 = assay: Cytotoxicity against human UO31 cells; format: functional
PC-3 = assay: Cytotoxicity against human PC3 cells; format: functional
DU-145 = assay: Cytotoxicity against human DU145 cells; format: functional
MCF7 = assay: Cytotoxicity against human MCF7 cells; format: functional
NCI/ADR-RES = assay: Cytotoxicity against human NCI/ADR-RES cells; format: functional
MDA-MB-231 = assay: Cytotoxicity against human MDA-MB-231 cells; format: functional
[13] = Cytotoxicity against human Hs 578T cells; format: functional
MDA-MB-435 = assay: Cytotoxicity against human MDA-MB-435 cells; format: functional
BT-549 = assay: Cytotoxicity against human BT549 cells; format: functional
T47D = assay: Cytotoxicity against human T47D cells; format: functional
K562 [14] = assay: Cell cycle arrest in human K562 cells assessed as accumulation in G0/G1 phase at 10 uM after 24 hrs by flow cytometry analysis; format: functional
K562 [15] = assay: Cell cycle arrest in human K562 cells assessed as accumulation in S phase at 10 uM after 24 hrs by flow cytometry analysis; format: functional
K562 [16] = assay: Cell cycle arrest in human K562 cells assessed as accumulation in G2/M phase at 10 uM after 24 hrs by flow cytometry analysis; format: functional
K562 [17] = assay: Cell cycle arrest in human K562 cells assessed as accumulation in Sub-G1 phase at 10 uM after 24 hrs by flow cytometry analysis; format: functional
[18] = read-out: LC50 (the source's name)

C(#Cc1ccccc1C#Cc1ccccn1)c1ccc(OCCCCCCOc2ccc(C#Cc3ccccc3C#Cc3ccccn3)cc2)cc1
Activity (K562 [1]): 13.7%
Activity (K562 [2]): 59.7%
Activity (K562 [3]): 26.6%
Activity (K562 [4]): 8.77%
Activity (K562 [5]): 23%
Activity (K562 [6]): 52.1%
Activity (K562 [7]): 24.9%
Activity (K562 [8]): 15.54%
Activity (K562 [9]): Active
Activity (K562 [10]): Active
GI50 (CCRF-CEM): 40 nM
CC50 (CCRF-CEM; [18]): > 50 µM
GI50 (HL-60): 90 nM
CC50 (HL-60; [18]): 2700 nM
GI50 (K562 [11]): 1380 nM
CC50 (K562 [11]; [18]): 22.8 µM
GI50 (MOLT-4): 370 nM
CC50 (MOLT-4; [18]): 28 µM
GI50 [12]: 620 nM
CC50 [12, 18]: > 50 µM
GI50 (A549): 6.41 µM
CC50 (A549; [18]): 43.2 µM
GI50 (EKVX): 4.33 µM
CC50 (EKVX; [18]): 22.9 µM
GI50 (HOP-62): 6.31 µM
CC50 (HOP-62; [18]): 38.8 µM
GI50 (NCI-H226): 6.53 µM
CC50 (NCI-H226; [18]): 30.3 µM
GI50 (NCI-H23): 7.97 µM
CC50 (NCI-H23; [18]): > 50 µM
GI50 (NCI-H460): 1690 nM
CC50 (NCI-H460; [18]): 18.7 µM
GI50 (NCI-H522): 2870 nM
CC50 (NCI-H522; [18]): 38.4 µM
GI50 (COLO 205): 8.18 µM
CC50 (COLO 205; [18]): 30.9 µM
GI50 (HCC 2998): 7.21 µM
CC50 (HCC 2998; [18]): 26.9 µM
GI50 (HCT-116): 8.69 µM
CC50 (HCT-116; [18]): > 50 µM
GI50 (HCT-15): 2780 nM
CC50 (HCT-15; [18]): 22 µM
GI50 (HT-29): 7.89 µM
CC50 (HT-29; [18]): 27 µM
GI50 (KM12): 1380 nM
CC50 (KM12; [18]): 20.8 µM
GI50 (SW-620): 4 µM
CC50 (SW-620; [18]): 22.7 µM
GI50 (SF-268): 3.63 µM
CC50 (SF-268; [18]): 22.7 µM
GI50 (SF-295): 1240 nM
CC50 (SF-295; [18]): 15.8 µM
GI50 (SF-539): 2380 nM
CC50 (SF-539; [18]): 21.3 µM
GI50 (SNB-19): 6 µM
CC50 (SNB-19; [18]): 26.2 µM
GI50 (SNB-75): 5.13 µM
CC50 (SNB-75; [18]): 31.3 µM
GI50 (U-251): 5.63 µM
CC50 (U-251; [18]): 24.1 µM
GI50 (LOX IMVI): 270 nM
CC50 (LOX IMVI; [18]): 18.4 µM
GI50 (M14): 7.47 µM
CC50 (M14; [18]): 41.6 µM
GI50 (SK-MEL-28): 5.73 µM
CC50 (SK-MEL-28; [18]): 24.3 µM
GI50 (SK-MEL-5): 2300 nM
CC50 (SK-MEL-5; [18]): 20.5 µM
GI50 (UACC-257): 7.11 µM
CC50 (UACC-257; [18]): 31.4 µM
GI50 (UACC-62): 470 nM
CC50 (UACC-62; [18]): 16.4 µM
GI50 (OVCAR-3): 2140 nM
CC50 (OVCAR-3; [18]): 21.3 µM
GI50 (OVCAR-4): 1910 nM
CC50 (OVCAR-4; [18]): 23.4 µM
GI50 (OVCAR-5): 3.56 µM
CC50 (OVCAR-5; [18]): 23.4 µM
GI50 (SK-OV-3): 7.05 µM
CC50 (SK-OV-3; [18]): 42 µM
GI50 (786-0): 7.45 µM
CC50 (786-0; [18]): > 50 µM
GI50 (ACHN): 1340 nM
CC50 (ACHN; [18]): 19.6 µM
GI50 (CAKI-1): 5.42 µM
CC50 (CAKI-1; [18]): 23.8 µM
GI50 (RXF 393): 7.65 µM
CC50 (RXF 393; [18]): 27.9 µM
GI50 (SN12C): 6.55 µM
CC50 (SN12C; [18]): 32.7 µM
GI50 (UO-31): 8.51 µM
CC50 (UO-31; [18]): > 50 µM
GI50 (PC-3): 4.46 µM
CC50 (PC-3; [18]): 29.2 µM
GI50 (DU-145): 6.14 µM
CC50 (DU-145; [18]): 24.9 µM
GI50 (MCF7): 1910 nM
CC50 (MCF7; [18]): 21.8 µM
GI50 (NCI/ADR-RES): 2300 nM
CC50 (NCI/ADR-RES; [18]): > 50 µM
GI50 (MDA-MB-231): 2670 nM
CC50 (MDA-MB-231; [18]): 23.5 µM
GI50 [13]: 5.41 µM
CC50 [13, 18]: 34.6 µM
GI50 (MDA-MB-435): 1540 nM
CC50 (MDA-MB-435; [18]): 21.7 µM
GI50 (BT-549): 3.45 µM
CC50 (BT-549; [18]): 22.7 µM
GI50 (T47D): 2350 nM
CC50 (T47D; [18]): > 50 µM
Activity (K562 [14]): 15%
Activity (K562 [15]): 49.2%
Activity (K562 [16]): 35.8%
Activity (K562 [17]): 8.57%

COc1cc2c(c(OC)c1OC)-c1ccc(OC)c(=O)cc1[C@@H](NC(C)=O)CC2 [COLCHICINE]
Activity (K562 [14]): 8.8%
Activity (K562 [15]): 16.6%
Activity (K562 [16]): 74.6%
Activity (K562 [17]): 14.59%
